Measurements: patent publication US11582971B2, “Crystalline forms of deltamethrin and methods of use thereof” (priority 2019, dated 2023)

What was measured:
Drosophila melanogaster = assay: Polymorph lethality, polyethylene glycol coated crystalline thin film; format: in vivo; conditions: for average knockdown time / median knockdown time (KT50): polyethylene glycol coated crystalline film (2.2*2.2 cm^2)
Description: FIGS. 7A-7B are a lethality comparison of the two forms of deltamethrin. FIG. 7A is a graph depicting the velocities of fruit flies exposed to crystalline films (2.2*2.2 cm^2) of deltamethrin Form I and II; FIG. 7B is a comparison of Drosophila melanogaster knockdown times on crystalline films (2.2*2.2 cm^2) of deltamethrin Form I and Form II.
The knockdown times for neat thin films are too short to allow a valid comparison of their lethality. Therefore, thin films of deltamethrin Form I and Form II were prepared and partially coated by nebulized polyethylene glycol, producing islands of inert material with a small fraction of the deltamethrin film exposed (FIG. 7B). […] The corresponding average knockdown times and median knockdown times (KT50) are denoted. The average knockdown times for polyethylene glycol coated deltamethrin Form I and Form II crystalline film were 385 minutes and 70 minutes, respectively. The KT50 values were 400 minutes and 61 minutes, respectively (FIG. 7B).
This confirms that Form I dust is transformed to Form II dust by the microwave heating treatment.

[1] = system: yellow fever mosquitos (Aedes aegypti); assay: Polymorph lethality, dust, residual exposure method, Aedes mosquitoes; format: in vivo; conditions: for average knockdown time / median knockdown time (KT50): 2 mg deltamethrin dust
Description: (§1) The effect of deltamethrin polymorphs on yellow fever mosquitos (Aedes aegypti) was determined by the residual exposure method. Bruck, D. J.; Bolda, M.; Tanigoshi, L.; Klick, J.; Kleiber, J.; DeFrancesco, J.; Gerdeman, B.; Spitler, H. Laboratory and field comparisons of insecticides to reduce infestation of Drosophila suzukii in berry crops. Pest. Manag. Sci. 2011, 67, 1375-1385. Lethality assays were performed for each dust sample as well as a control. Female Aedes mosquitoes were temporarily anesthetized by CO2 exposure, then transferred to the 90 mm diameter petri dishes with deltamethrin dust. The dishes were covered with their mating top and the motion of the mosquitoes was recorded to establish knockdown time (i.e., the time after which there was no further translational motion).
(§2) The lethalities of the two crystalline forms of deltamethrin were compared by exposing yellow fever mosquitos (Aedes aegypti) to 2 mg of the respective dusts (containing […] deltamethrin Form I or Form II) dispersed evenly in 90 mm-diameter plastic Petri dishes. Each trial was performed in duplicate for each crystalline form, as well as a control.
The motions of mosquitoes were monitored by a video camera. A custom designed video process programmer was used to record the onset of hyperactivity and to track the time required for the expiration of the mosquitoes, as measured by knockdown. No Form I-exposed fly survived more than 300 minutes. […] (FIG. 6A). The death occurred much later for deltamethrin Form I-exposed mosquitoes.
(§3) Lethality was deduced by the standard measurement of knockdown time, defined as time when a mosquito is immobile in a supine or sideways position for at least one second (i.e., no translational motion). Lindquist, A. W.; Jones, H. A.; Madden, A. H. DDT Residual-type sprays as affected by light. J. Econ. Entomol. 1946, 39, 55-59. Paralyzed flies never recover.
FIGS. 6A and 6B depict the graphs of the lethality comparison of the two forms of deltamethrin, in terms of mosquito velocities and knockdown times. The corresponding average knockdown times and median knockdown times (KT50) are denoted. The median knockdown time (KT50) for each polymorph was determined from multiple trials using twenty female mosquitoes each. KT50 is defined as the time required to render 50 percent of the insects motionless. Kawada, H.; Dida, G. O.; Ohashi, K.; Komagata, O.; Kasai, S.; Tomita, T.; Sonye, G.; Maekawa, Y.; Mwatele, C.; Njenga, S. M.; Mwandawiro, C; Minakawa, N.; Takagi, M. Multimodal pyrethroid resistance in malaria vectors, Anopheles gambiae s.s., Anopheles arabiensis, and Anopheles funestus s.s. in Western Kenya. PLoS One 2011, 6, No. e22574; Limoee, M.; Ladonni, H.; Enayati, A. A.; Vatandoost, H.; Aboulhasani, M. Detection of pyrethroid resistance and cross resistance to DDT in seven field-collected strains of the German cockroach, Blattella germanica (L.) (Dictyoptera: Blattellidae). J. Biol. Sci. 2006, 6, 382-387. The average knockdown times for 2 mg deltamethrin Form I and Form II dust were 202 minutes and 22 minutes, respectively. The KT50 values were 192 minutes and 21 minutes, respectively (FIG. 6B).

[2] = system: fruit flies (Drosophila melanogaster); assay: Polymorph lethality, dust, residual exposure method, fruit flies; format: in vivo; conditions: for average knockdown time / median knockdown time (KT50): 2 mg deltamethrin dust; for average knockdown time / median knockdown time (KT50) / longest survival (no individual survived more than) / onset of hyperactivity: female fruit flies; for longest survival (no individual survived more than) / onset of hyperactivity: 2 mg dust in 35 mm Petri dish
Description: as §1, with “on fruit flies” for “on yellow fever mosquitos (Aedes aegypti)”, “each powder” for “each dust”, “Female fruit flies (Drosophila melanogaster)” for “Female Aedes mosquitoes”, “the 35” for “the 90”, “the fruit flies” for “the mosquitoes”
as §2, with “fruit flies (Drosophila melanogaster), a well-established model for pesticide development (Schneider, D. Using Drosophila as a Model Insect. Nat. Rev. Genet. 2000, 1, 218-226),” for “yellow fever mosquitos (Aedes aegypti)”, “35” for “90”, “triplicate” for “duplicate”
The motions of fruit flies were monitored by a video camera. A custom designed video process programmer was used to record the onset of hyperactivity and to track the time required for the expiration of the flies, as measured by knockdown. […] (FIG. 5A). Both the onset of hyperactivity and death occurred much later for deltamethrin Form I-exposed flies.
as §3, with “fly” for “mosquito”
FIGS. 5A and 5B depict the graphs of the lethality comparison of the two forms of deltamethrin, in terms of fly velocities and knockdown times. The corresponding average knockdown times and median knockdown times (KT50) are denoted. The median knockdown time (KT50) for each polymorph was determined from multiple trials using twenty female flies each. KT50 is defined as the time required to render 50 percent of the insects motionless. Kawada, H.; Dida, G. O.; Ohashi, K.; Komagata, O.; Kasai, S.; Tomita, T.; Sonye, G.; Maekawa, Y.; Mwatele, C.; Njenga, S. M.; Mwandawiro, C; Minakawa, N.; Takagi, M. Multimodal pyrethroid resistance in malaria vectors, Anopheles gambiae s.s., Anopheles arabiensis, and Anopheles funestus s.s. in Western Kenya. PLoS One 2011, 6, No. e22574; Limoee, M.; Ladonni, H.; Enayati, A. A.; Vatandoost, H.; Aboulhasani, M. Detection of pyrethroid resistance and cross resistance to DDT in seven field-collected strains of the German cockroach, Blattella germanica (L.) (Dictyoptera: Blattellidae). J Biol. Sci. 2006, 6, 382-387. The average knockdown times for 2 mg deltamethrin dusts with Form I and Form II were 123 minutes and 21 minutes, respectively. The KT50 values were 113 minutes and 20 minutes, respectively (FIG. 5B).

[3] = Phase behavior / thermodynamic stability of deltamethrin polymorphs; format: physicochemical
Description: Thermodynamic stability of deltamethrin polymorphs was evaluated by the phase transformation behaviors and respective melting points. […] Rarely, transformation from Form II to Form I can be observed between crossed polarizers when spherulites of Form II are in contact with concomitant polycrystalline Form I (FIG. 4A, 4B). Form II fibers grow radially along their <010> direction. […] Upon phase transformation to Form I, the orientation of new grains become misaligned, resulting in a loss of observable birefringence. At room temperature the transformation can be observed by a moving growth front, which advances at a velocity of 0.3 μm/min.

[4] = female Aedes aegypti, 2 mg dust in 90 mm Petri dish

Row | SMILES | average knockdown time (Drosophila melanogaster) | median knockdown time (KT50) (Drosophila melanogaster) | knockdown times, comparison of the forms (Drosophila melanogaster; thin films) | average knockdown time ([1]; female Aedes aegypti) | median knockdown time (KT50) ([1]; female Aedes aegypti) | lethality ranking ([1]; dust, Aedes aegypti) | longest survival (no individual survived more than) [1, 4] | onset of hyperactivity [1, 4] | average knockdown time [2] | median knockdown time (KT50) [2] | lethality ranking ([2]; dust, fruit flies) | longest survival (no individual survived more than) [2] | onset of hyperactivity [2] | transformation of Form II to Form I on storage ([3]; crystalline film confined between glass slides, 6 months at room temperature) | room temperature stability ranking ([3]; room temperature) | velocity of the growth front of the Form II to Form I transformation ([3]; room temperature, Form II spherulites in contact with polycrystalline Form I)
1 | CC1(C)[C@H](C(=O)O[C@H](C#N)c2cccc(Oc3ccccc3)c2)[C@@H]1C=C(Br)Br [Form II, (S)-cyano(3-phenoxyphenyl) methyl (1R,3R)-3-(2,2-dibromovinyl)-2,2-dimethylcyclopropane-1-carboxylate] | 70 min | 61 min | shorter for Form II than for Form I | 22 min | 21 min | more lethal than Form I | ≤ 30 min | as soon as they were exposed | 21 min | 20 min | more lethal than Form I | ≤ 40 min | as soon as they were exposed | did not transform to Form I | Form I> Form II | 0.3 μm/min
2 | CC1(C)[C@H](C(=O)O[C@H](C#N)c2cccc(Oc3ccccc3)c2)[C@@H]1C=C(Br)Br [Form I, (S)-cyano(3-phenoxyphenyl) methyl (1R,3R)-3-(2,2-dibromovinyl)-2,2-dimethylcyclopropane-1-carboxylate, reference compound] | 385 min | 400 min | – | 202 min | 192 min | – | ≤ 300 min | – | 123 min | 113 min | – | ≤ 210 min | 40 min | – | – | –
